The source of these data is patent US20240083857A1, “2-Methyl-Quinazolines” (Bayer Pharma Aktiengesellschaft, priority 2017, published 2024).

Each structure is given as a SMILES string.

The target of test [1] is K-Ras^G12C : hSOS1 interaction (Homo sapiens, UniProt Q07889). Description: Biochemical assay 1: K-Ras^G12C interaction assay with hSOS1 (HTRF). It counts as binding. The settings on record: read-out: Assay 1 (KRAS-SOS Interaction) activity expressed as IC50. (In general: In TR-FRET formats the signal depends on donor and acceptor labels being close together.)
The target in test [2] is human SOS1 (loading of human K-Ras^G12C-GDP with fluorescent GTP-analog) (Homo sapiens, UniProt Q07889). Put plainly: Biochemical assay 3: K-Ras^G12C activation assay by hSOS1 (HTRF). The settings on record: no GTP; for IC50: read-out: Assay 3 (KRAS-Activation by SOS no GTP) activity expressed as IC50; for inhibition at 20 µM: read-out: Assay 3 (KRAS-Activation by SOS no GTP) activity expressed as % inhibition at 20 μM.

Usually IC50 stands for the point on the concentration scale where inhibition reaches its midpoint. In the case of `COc1cc2nc(C)nc(N[C@H](C)c3cccc(C4CC4)c3)c2cc1OC` [Example 204, N-[(1R)-1-(3-cyclopropylphenyl)ethyl]-6,7-dimethoxy-2-methylquinazolin-4-amine], the IC50 in test [1] stood at 229 nM; in test [2], 640 nM.
The matching figures for `COc1cc2nc(C)nc(N[C@H](C)c3ccc(-c4ccccc4)cc3)c2cc1OC` [Example 196, N-[(1R)-1-(biphenyl-4-yl)ethyl]-6,7-dimethoxy-2-methylquinazolin-4-amine]: 2420 nM and 6100 nM.
Taken in the same sequence, the figures for `COc1cc2nc(C)nc(NC(C)c3ccc(-c4cccc5[nH]ncc45)s3)c2cc1OC` (stereo not drawn) [Example 247, N-{1-[5-(1H-indazol-4-yl)thiophen-2-yl]ethyl}-6,7-dimethoxy-2-methylquinazolin-4-amine] were 591 nM and 2700 nM.
The matching figures for `COc1cc2nc(C)nc(NC(C)c3ccc(-c4ccccc4CN4CCC[C@H]4CN(C)C)s3)c2cc1OC` (stereo partly drawn) [Example 185, N-[1-{5-[2-({(2S)-[(dimethylamino)methyl]pyrrolidin-1-yl}methyl)phenyl]thiophen-2-yl}ethyl]-6,7-dimethoxy-2-methylquinazolin-4-amine]: 78.8 nM and 323 nM.
For the compound `COc1cc2nc(C)nc(NC(C)c3csc(Br)c3)c2cc1OC` (stereo not drawn) [Example 239, N-[1-(5-bromothiophen-3-yl)ethyl]-6,7-dimethoxy-2-methylquinazolin-4-amine], the values for the half-inhibitory concentration (IC50) in test [1] and in test [2] were 7070 nM and 14300 nM, respectively.
The matching figures for `COc1cc2nc(C)nc(NC(C)c3csc(-c4cnn(CCN5CCCC5)c4)c3)c2cc1OC` (stereo not drawn) [Example 254, 6,7-dimethoxy-2-methyl-N-[1-(5-{1-[2-(pyrrolidin-1-yl)ethyl]-1H-pyrazol-4-yl}thiophen-3-yl)ethyl]quinazolin-4-amine]: 814 nM and 3450 nM.
The matching figures for `COc1cc2nc(C)nc(NC(C)c3ccc(-c4ccccc4CN4CCC(N(C)C)C4)s3)c2cc1OC` (stereo not drawn) [Example 238, N-{1-[5-(2-{[3-(dimethylamino)pyrrolidin-1-yl]methyl}phenyl)thiophen-2-yl]ethyl}-6,7-dimethoxy-2-methylquinazolin-4-amine]: 81.6 nM and 216 nM.
Taken in the same sequence, the figures for `COc1cc2nc(C)nc(NC(C)c3ccc(-c4ccccc4CN4CC[C@H](F)C4)s3)c2cc1OC` (stereo partly drawn) [Example 211, N-{1-[5-(2-{[(3S)-3-fluoropyrrolidin-1-yl]methyl}phenyl)thiophen-2-yl]ethyl}-6,7-dimethoxy-2-methylquinazolin-4-amine] were 133 nM and 233 nM.
Take `COc1cc2nc(C)nc(NC(C)c3cccc4[nH]nc(C)c34)c2cc1OC` (stereo not drawn) [Example 13, 6,7-dimethoxy-2-methyl-N-[1-(3-methyl-1H-indazol-4-yl)ethyl]quinazolin-4-amine]: the figures for the IC50 in test [1] and in test [2] were 2020 nM and 7730 nM, respectively.
A word on the inhibition: it is the relative decrease from the control value, in per cent. Consider `COc1cc2nc(C)nc(NC(C)c3cccc4cccnc34)c2cc1OC` (stereo not drawn) [Example 217, 6,7-dimethoxy-2-methyl-N-[1-(quinolin-8-yl)ethyl]quinazolin-4-amine], for which the IC50 in test [1] amounted to 8800 nM. For the same compound, in test [2], the inhibition at 20 µM was determined as 45%.
Turning to `COc1cc2nc(C)nc(NC(C)c3ccc(-c4ccccc4N)s3)c2cc1OC` (stereo not drawn) [Example 243, N-{1-[5-(2-aminophenyl)thiophen-2-yl]ethyl}-6,7-dimethoxy-2-methylquinazolin-4-amine], the IC50 in test [1] amounted to 252 nM; in test [2], 418 nM.
The matching figures for `COc1cc2nc(C)nc(NC(C)c3ccc(-c4ccccc4CN4CC5(COC5)C4)s3)c2cc1OC` (stereo not drawn) [Example 182, 6,7-di methoxy-2-methyl-N-[1-{5-[2-(2-oxa-6-azaspiro[3.3]hept-6-ylmethyl)phenyl]thiophen-2-yl}ethyl]quinazolin-4-amine]: 51 nM and 121 nM.
With `COc1cc2nc(C)nc(NC(C)c3ccc(-c4ccccc4C(N)=O)s3)c2cc1OC` (stereo not drawn) [Example 240, 2-(5-{1-[(6,7-dimethoxy-2-methylquinazolin-4-yl)amino]ethyl}thiophen-2-yl)benzamide], the concentration for half-maximal inhibition (IC50) in test [1] is 3210 nM; in test [2] it was 7570 nM.
The matching figures for `COc1cc2nc(C)nc(N[C@H](C)c3ccc(F)cc3)c2cc1OC` [Example 12, N-[(1R)-1-(4-fluorophenyl)ethyl]-6,7-dimethoxy-2-methylquinazolin-4-amine]: 335 nM and 1290 nM.
Taken in the same sequence, the figures for `COc1cc2nc(C)nc(NC(C)c3ccc(-c4cccc(C(N)=O)c4)s3)c2cc1OC` (stereo not drawn) [Example 241, 3-(5-{1-[(6,7-dimethoxy-2-methylquinazolin-4-yl)amino]ethyl}thiophen-2-yl)benzamide] were 1120 nM and 1310 nM.
On to `COc1cc2nc(C)nc(NC(C)c3ccc(-c4ccccc4CN4CCC(F)(F)C4)s3)c2cc1OC` (stereo not drawn) [Example 223, N-[1-(5-{2-[(3,3-difluoropyrrolidin-1-yl)methyl]phenyl}thiophen-2-yl)ethyl]-6,7-dimethoxy-2-methylquinazolin-4-amine], for which the results for the IC50 in test [1] and in test [2] were 2110 nM and 7180 nM, respectively.
Taken in the same sequence, the figures for `COc1cc2nc(C)nc(NC(C)c3ccc(-c4ccc(C(N)=O)cc4)s3)c2cc1OC` (stereo not drawn) [Example 242, 4-(5-{1-[(6,7-dimethoxy-2-methylquinazolin-4-yl)amino]ethyl}thiophen-2-yl)benzamide] were 1830 nM and 3010 nM.
Taken in the same sequence, the figures for `COc1cc2nc(C)nc(NC(C)c3ccc(-c4ccccc4C#N)s3)c2cc1OC` (stereo not drawn) [Example 245, 2-(5-{1-[(6,7-dimethoxy-2-methylquinazolin-4-yl)amino]ethyl}thiophen-2-yl)benzonitrile] were 592 nM and 918 nM.
In the case of `COc1cc2nc(C)nc(NC(C)c3cccc(-c4nn[nH]n4)c3)c2cc1OC` (stereo not drawn) [Example 216, 6,7-dimethoxy-2-methyl-N-{1-[3-(2H-tetrazol-5-yl)phenyl]ethyl}quinazolin-4-amine], the IC50 in test [1] is 6580 nM; in test [2] it was 16100 nM.
On to `COc1cc2nc(C)nc(NC(C)c3cccc4cn(C)nc34)c2cc1OC` (stereo not drawn) [Example 8, 6,7-dimethoxy-2-methyl-N-[1-(2-methyl-2H-indazol-7-yl)ethyl]quinazolin-4-amine], for which the IC50 in test [1] worked out at 18200 nM. Besides, in test [2], the inhibition at 20 µM stood at 14%.
For the compound `COc1cc2nc(C)nc(N[C@H](C)c3cccc(C#N)c3)c2cc1OC` [Example 194, 3-{(1R)-1-[(6,7-dimethoxy-2-methylquinazolin-4-yl)amino]ethyl}benzonitrile], the IC50 in test [1] was determined as 493 nM; in test [2], 2430 nM.
In the case of `CNCc1ccccc1-c1ccc(C(C)Nc2nc(C)nc3cc(OC)c(OC)cc23)s1` (stereo not drawn) [Example 250, 6,7-dimethoxy-2-methyl-N-[1-(5-{2-[(methylamino)methyl]phenyl}thiophen-2-yl)ethyl]quinazolin-4-amine], the half-maximal inhibitory concentration (IC50) in test [1] worked out at 50 nM; in test [2], 70.4 nM.
For the compound `COc1cc2nc(C)nc(NC(C)c3ccc(-c4cccc5cn[nH]c45)s3)c2cc1OC` (stereo not drawn) [Example 246, N-{1-[5-(1H-indazol-7-yl)thiophen-2-yl]ethyl}-6,7-dimethoxy-2-methylquinazolin-4-amine], in test [1], the IC50 came to 7590 nM. In test [2], the inhibition at 20 µM was 44%.
With `COc1cc2nc(C)nc(NC(C)c3ccc(-c4ccc(F)c5ccccc45)s3)c2cc1OC` (stereo not drawn) [Example 233, N-{1-[5-(4-fluoronaphthalen-1-yl)thiophen-2-yl]ethyl}-6,7-dimethoxy-2-methylquinazolin-4-amine], the IC50 in test [1] is 10400 nM; in test [2] it was 16100 nM.
